Assay results published in paper PMC12677699, “Utilizing Proteolytic‐Resistant Nano‐Short Peptide Based on Naphthyl Tail‐Anchored to Combat Bacterial Infections” (Advanced Science, 2025).
Converted amounts (≈) assume the structure as drawn. Non-standard residues stand in square brackets, D forms with d. Residues, ends and D or L forms follow the SMILES beside them. *: point of attachment. 1Naphthoyl = O=C(c1cccc2ccccc12)*; Palmitoyl = CCCCCCCCCCCCCCCC(=O)*; Lauroyl = CCCCCCCCCCCC(=O)*

Key:
A. baumannii AB1901 = experiment: MIC against clinical strain; format: cell-based; settings: Acinetobacter baumannii, AB1901, read-out: MIC, A. baumannii AB1901
Experimental: (§1) The MIC values of the nano‐short peptides were determined according to standard protocols.^[ [63] ^] Bacterial strains were revived from cryopreservation and cultured in Mueller–Hinton broth (MHB) to logarithmic growth phase, then diluted to a final density of 0.5–1 × 10⁶ CFU mL^−1. Serial dilutions of the nano‐short peptides were prepared in 0.2% bovine serum albumin (BSA) using a 96‐well plate format. Equal volumes of peptide solutions and bacterial suspensions were combined and incubated at 37 °C for 20–22 h. Bacterial growth was assessed by measuring absorbance at 492 nm, with MHB alone (negative control) and untreated bacterial suspension (positive control) included for reference.

A. baumannii AB1902 = experiment: MIC against clinical strain; format: cell-based; settings: Acinetobacter baumannii, AB1902, read-out: MIC, A. baumannii AB1902
Experimental: as §1

P. aeruginosa 25349 = experiment: MIC against clinical strain; format: cell-based; settings: Pseudomonas aeruginosa, 25349, read-out: MIC, P. aeruginosa 25349
Experimental: as §1

S. aureus 11011 = experiment: MIC against clinical strain; format: cell-based; settings: Staphylococcus aureus, 11011, read-out: MIC, S. aureus 11011
Experimental: as §1

P. aeruginosa PAO1 = format: cell-based, Pseudomonas aeruginosa
Experimental: as §1

S. pullorum C7913 = format: cell-based
Experimental: as §1

S. aureus 25923 = format: cell-based, Staphylococcus aureus
Experimental: as §1

S. aureus 29213 = format: cell-based, Staphylococcus aureus
Experimental: as §1

MRSA 43300 = format: cell-based, Methicillin-Resistant Staphylococcus aureus
Experimental: as §1

E. faecalis 29212 = format: cell-based, Enterococcus faecalis
Experimental: as §1

S. epidermidis 12228 = format: cell-based, Staphylococcus epidermidis
Experimental: as §1

E. coli 078 = format: cell-based, Escherichia coli
Experimental: as §1

E. coli 25922 = format: cell-based, Escherichia coli
Experimental: as §1

E. coli UB1005 = format: cell-based, Escherichia coli
Experimental: as §1

P. aeruginosa 27853 = format: cell-based, Pseudomonas aeruginosa
Experimental: as §1

S. typhimurium 14028 = format: cell-based, Salmonella typhimurium
Experimental: as §1

S. typhimurium 7731 = format: cell-based, Salmonella typhimurium
Experimental: as §1

SMILES | MIC (A. baumannii AB1901) | MIC (A. baumannii AB1902) | MIC (P. aeruginosa 25349) | MIC (S. aureus 11011) | MIC, P. aeruginosa PAO1 (P. aeruginosa PAO1) | MIC, S. pullorum C7913 (S. pullorum C7913) | MIC, S. aureus 25923 (S. aureus 25923) | MIC, S. aureus 29213 (S. aureus 29213) | MIC, MRSA 43300 (MRSA 43300) | MIC, E. faecalis 29212 (E. faecalis 29212) | MIC, S. epidermidis 12228 (S. epidermidis 12228) | MIC, E. coli 078 (E. coli 078) | MIC, E. coli 25922 (E. coli 25922) | MIC, E. coli UB1005 (E. coli UB1005) | MIC, P. aeruginosa 27853 (P. aeruginosa 27853) | MIC, S. typhimurium 14028 (S. typhimurium 14028) | MIC, S. typhimurium 7731 (S. typhimurium 7731)
CC1COc2c(N3CCN(C)CC3)c(F)cc3c(=O)c(C(=O)O)cn1c23 (stereo not shown) [Ofloxacin] | 1 µM (≈ 0.361 µg/mL) | 128 µM (≈ 46.3 µg/mL) | 2 µM (≈ 0.723 µg/mL) | 128 µM (≈ 46.3 µg/mL) |  |  |  |  |  |  |  |  |  |  |  |  | 
CCCCCCCCCCCCCCCC(=O)N[C@H](CCCNC(=N)N)C(=O)N[C@@H](CCCNC(=N)N)C(=O)N[C@@H](CCCNC(=N)N)C(=O)N1CCC[C@H]1C(=O)O [Peptide C16] (Palmitoyl-[dR]RRP-OH) |  |  |  |  | 32 µM (≈ 26.3 µg/mL) | 256 µM (≈ 210 µg/mL) | 32 µM (≈ 26.3 µg/mL) | 32 µM (≈ 26.3 µg/mL) | 32 µM (≈ 26.3 µg/mL) | 32 µM (≈ 26.3 µg/mL) | 32 µM (≈ 26.3 µg/mL) |  |  |  |  |  | 
CCCCCCCCCCCC(=O)N[C@H](CCCNC(=N)N)C(=O)N[C@@H](CCCNC(=N)N)C(=O)N[C@@H](CCCNC(=N)N)C(=O)N1CCC[C@H]1C(=O)O [Peptide C12] (Lauroyl-[dR]RRP-OH) |  |  |  |  | 64 µM (≈ 49 µg/mL) | 128 µM (≈ 98 µg/mL) | 64 µM (≈ 49 µg/mL) | 64 µM (≈ 49 µg/mL) | 32 µM (≈ 24.5 µg/mL) | 64 µM (≈ 49 µg/mL) | 64 µM (≈ 49 µg/mL) | 128 µM (≈ 98 µg/mL) | 128 µM (≈ 98 µg/mL) | 256 µM (≈ 196 µg/mL) | 128 µM (≈ 98 µg/mL) | 128 µM (≈ 98 µg/mL) | 128 µM (≈ 98 µg/mL)
C[C@H](N)C(=O)N[C@@H](C)C(=O)N[C@@H](C)C(=O)N[C@@H](C)C(=O)N[C@@H](C)C(=O)N[C@@H](C)C(=O)N[C@H](CCCNC(=N)N)C(=O)N[C@@H](CCCNC(=N)N)C(=O)N[C@@H](CCCNC(=N)N)C(=O)N1CCC[C@H]1C(=O)O [Peptide A6] (H-AAAAAA[dR]RRP-OH) |  |  |  |  | 256 µM (≈ 259 µg/mL) | 256 µM (≈ 259 µg/mL) | 256 µM (≈ 259 µg/mL) | 256 µM (≈ 259 µg/mL) | 256 µM (≈ 259 µg/mL) | 256 µM (≈ 259 µg/mL) | 256 µM (≈ 259 µg/mL) | 256 µM (≈ 259 µg/mL) | 256 µM (≈ 259 µg/mL) | 256 µM (≈ 259 µg/mL) | 256 µM (≈ 259 µg/mL) | 256 µM (≈ 259 µg/mL) | 256 µM (≈ 259 µg/mL)
C[C@H](N)C(=O)N[C@@H](C)C(=O)N[C@@H](C)C(=O)N[C@@H](C)C(=O)N[C@H](CCCNC(=N)N)C(=O)N[C@@H](CCCNC(=N)N)C(=O)N[C@@H](CCCNC(=N)N)C(=O)N1CCC[C@H]1C(=O)O [Peptide A4] (H-AAAA[dR]RRP-OH) |  |  |  |  | 256 µM (≈ 222 µg/mL) | 256 µM (≈ 222 µg/mL) | 256 µM (≈ 222 µg/mL) | 256 µM (≈ 222 µg/mL) | 256 µM (≈ 222 µg/mL) | 256 µM (≈ 222 µg/mL) | 256 µM (≈ 222 µg/mL) | 256 µM (≈ 222 µg/mL) | 256 µM (≈ 222 µg/mL) | 256 µM (≈ 222 µg/mL) | 256 µM (≈ 222 µg/mL) | 256 µM (≈ 222 µg/mL) | 256 µM (≈ 222 µg/mL)
C[C@H](N)C(=O)N[C@@H](C)C(=O)N[C@@H](C)C(=O)N[C@H](CCCNC(=N)N)C(=O)N[C@@H](CCCNC(=N)N)C(=O)N[C@@H](CCCNC(=N)N)C(=O)N1CCC[C@H]1C(=O)O [Peptide A3] (H-AAA[dR]RRP-OH) |  |  |  |  | 256 µM (≈ 204 µg/mL) | 256 µM (≈ 204 µg/mL) | 256 µM (≈ 204 µg/mL) | 256 µM (≈ 204 µg/mL) | 256 µM (≈ 204 µg/mL) | 256 µM (≈ 204 µg/mL) | 256 µM (≈ 204 µg/mL) | 256 µM (≈ 204 µg/mL) | 256 µM (≈ 204 µg/mL) | 256 µM (≈ 204 µg/mL) | 256 µM (≈ 204 µg/mL) | 256 µM (≈ 204 µg/mL) | 256 µM (≈ 204 µg/mL)
N=C(N)NCCC[C@H](NC(=O)c1cccc2ccccc12)C(=O)N[C@H](CCCNC(=N)N)C(=O)N[C@@H](CCCNC(=N)N)C(=O)N1CCC[C@H]1C(=O)O [Nap] (1Naphthoyl-R[dR]RP-OH) |  |  |  |  | 256 µM (≈ 189 µg/mL) | 256 µM (≈ 189 µg/mL) | 256 µM (≈ 189 µg/mL) | 256 µM (≈ 189 µg/mL) | 256 µM (≈ 189 µg/mL) | 256 µM (≈ 189 µg/mL) | 256 µM (≈ 189 µg/mL) | 256 µM (≈ 189 µg/mL) | 256 µM (≈ 189 µg/mL) | 256 µM (≈ 189 µg/mL) | 256 µM (≈ 189 µg/mL) | 256 µM (≈ 189 µg/mL) | 256 µM (≈ 189 µg/mL)
